From US9512107B2, “Therapeutically active compositions and their methods of use” (Agios Pharmaceuticals, Inc., priority 2012, dated 2016) come the findings set out here.

The structures appear in SMILES notation. Numbering of substitutions follows the chain as printed. Like-named read-outs stand apart in the source and are kept apart here.

Test [1] concerns the target T1, IDH2 R172K (Homo sapiens, UniProt P48735, R172K).
T1 sequence (P48735 40-452 R172K): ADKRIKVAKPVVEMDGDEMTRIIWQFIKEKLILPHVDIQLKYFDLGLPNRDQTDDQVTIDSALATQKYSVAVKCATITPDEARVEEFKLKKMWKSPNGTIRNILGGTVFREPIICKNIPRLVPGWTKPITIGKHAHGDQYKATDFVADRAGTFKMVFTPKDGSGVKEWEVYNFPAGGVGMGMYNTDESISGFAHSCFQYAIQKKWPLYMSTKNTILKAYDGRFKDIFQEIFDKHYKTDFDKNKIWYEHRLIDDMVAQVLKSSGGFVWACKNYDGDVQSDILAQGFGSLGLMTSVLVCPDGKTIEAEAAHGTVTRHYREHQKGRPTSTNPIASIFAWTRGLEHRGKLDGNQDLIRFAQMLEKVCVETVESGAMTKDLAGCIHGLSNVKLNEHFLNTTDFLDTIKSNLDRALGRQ
Kind of test: IDH2 R172K enzymatic assay (NADPH cofactor depletion, diaphorase/resazurin readout). In kind it is biochemical. As to conditions: read-out: Enz R172K. The gist of the method:
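Cofactor depletion format: enzyme + compound 1 h RT; add substrate mix (50 μM NADPH, 6.3 mM α-KG); react 1 h RT; quench with stop mix (36 μg/ml diaphorase, 60 μM resazurin); read resorufin fluorescence as residual NADPH.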

In test [2] the test system is U87MG pLVX-IDH2 R140Q-neo cells. Kind of test: U87MG pLVX-IDH2 R140Q-neo cell based assay, 2-HG in media by LC-MS at 48 hours. In short, it runs like this:
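2-HG secreted into the medium was measured by LC-MS after 48 h of compound treatment (0.2% DMSO final) of U87MG pLVX-IDH2 R140Q-neo cells in DMEM/10% FBS. The same wells were assayed at 72 h by CellTiter-Glo luminescence for effects on growth.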

The target of test [3] is T2, IDH2 R140Q (Homo sapiens, UniProt P48735, R140Q).
T2 sequence (P48735 40-452 R140Q): T1 sequence (P48735 40-452 R172K) with R101Q, K133R
Kind of test: IDH2 R140Q enzymatic assay (cofactor depletion, similar format). As to conditions: read-out: Enz R140Q. In kind it is biochemical.

Consider `FC(F)(F)c1cc(Nc2nc(NC3CC4CCC3O4)nc(-c3cccc(C(F)(F)F)n3)n2)ccn1` (stereo not drawn) [Compound 556, N-(7-Oxa-bicyclo[2.2.1]hept-2-yl)-6-(6-trifluoromethyl-pyridin-2-yl)-N′-(2-trifluoromethyl-pyridin-4-yl)-[1,3,5]triazine-2,4-diamine], for which the IC50 in test [1] was below 100 nM; in test [2] (Homo sapiens, U-87 MG) it was below 100 nM; in test [3], 100 to 1000 nM.
Take `COC1(c2cc(Nc3nc(NC(C)C)nc(-c4cccc(C(F)(F)F)n4)n3)ccn2)CC1` [Compound 559, N-Isopropyl-N′-[2-(1-methoxy-cyclopropyl)-pyridin-4-yl]-6-(6-trifluoromethyl-pyridin-2-yl)-[1,3,5]triazine-2,4-diamine]: the IC50 in test [1] is below 100 nM; in test [2] (Homo sapiens, U-87 MG), below 100 nM; in test [3] it was 100 to 1000 nM.
Take `CC(C)(O)CNc1nc(Nc2cc(F)cc(F)c2)nc(-c2cccc(C(C)(F)F)n2)n1` [Compound 560, 1-[4-[6-(1,1-Difluoro-ethyl)-pyridin-2-yl]-6-(3,5-difluoro-phenylamino)-[1,3,5]triazin-2-ylamino]-2-methyl-propan-2-ol]: the IC50 is below 100 nM in test [1]; below 100 nM in test [2] (Homo sapiens, U-87 MG); 100 to 1000 nM in test [3].
Turning to `CC(C)Nc1nc(Nc2cc(Cl)cc(S(C)(=O)=O)c2)nc(-c2cccc(C(F)(F)F)n2)n1` [Compound 561, N-(3-Chloro-5-methanesulfonyl-phenyl)-N′-isopropyl-6-(6-trifluoromethyl-pyridin-2-yl)-[1,3,5]triazine-2,4-diamine], the IC50 in test [1] is below 100 nM; in test [2] (Homo sapiens, U-87 MG), below 100 nM; in test [3], 100 to 1000 nM.
`CC(C)(CO)Nc1nc(Nc2ccnc(C(F)(F)F)c2)nc(-c2cccc(C(F)(F)F)n2)n1` [Compound 562, 2-Methyl-2-[4-(6-trifluoromethyl-pyridin-2-yl)-6-(2-trifluoromethyl-pyridin-4-ylamino)-[1,3,5]triazin-2-ylamino]-propan-1-ol]: the IC50 was below 100 nM in test [1]; below 100 nM in test [2] (Homo sapiens, U-87 MG); 100 to 1000 nM in test [3].
Regarding `CC(C)Nc1nc(Nc2ccnc(C3CC3)c2)nc(-c2cccc(C(F)(F)F)n2)n1` [Compound 563, N-(2-Cyclopropyl-pyridin-4-yl)-N′-isopropyl-6-(6-trifluoromethyl-pyridin-2-yl)-[1,3,5]triazine-2,4-diamine], the IC50 in test [1] was below 100 nM; in test [2] (Homo sapiens, U-87 MG) it was below 100 nM; in test [3], 100 to 1000 nM.
On to `CC(C)(C)Nc1nc(Nc2ccnc(C3CC3)c2)nc(-c2cccc(C(F)(F)F)n2)n1` [Compound 564, N-tert-Butyl-N′-(2-cyclopropyl-pyridin-4-yl)-6-(6-trifluoromethyl-pyridin-2-yl)-[1,3,5]triazine-2,4-diamine], for which the IC50 in test [1] is below 100 nM; in test [2] (Homo sapiens, U-87 MG), below 100 nM; in test [3] it was 100 to 1000 nM.
For `CC1(Nc2nc(Nc3ccnc(C4CC4)c3)nc(-c3cccc(C(F)(F)F)n3)n2)CC1` [Compound 565, N-(2-Cyclopropyl-pyridin-4-yl)-N′-(1-methyl-cyclopropyl)-6-(6-trifluoromethyl-pyridin-2-yl)-[1,3,5]triazine-2,4-diamine], the IC50 in test [1] is below 100 nM; in test [2] (Homo sapiens, U-87 MG), below 100 nM; in test [3], 100 to 1000 nM.
With `CC(C)(C)Nc1nc(Nc2ccnc(C(C)(F)F)c2)nc(-c2cccc(C(F)(F)F)n2)n1` [Compound 567, N-tert-Butyl-N′-[2-(1,1-difluoro-ethyl)-pyridin-4-yl]-6-(6-trifluoromethyl-pyridin-2-yl)-[1,3,5]triazine-2,4-diamine], the IC50 in test [1] is below 100 nM; in test [2] (Homo sapiens, U-87 MG), below 100 nM; in test [3] it was 100 to 1000 nM.
For the compound `OC1CC1Nc1nc(Nc2ccnc(C(F)(F)F)c2)nc(-c2cccc(C(F)(F)F)n2)n1` (stereo not drawn) [Compound 568, 2-[4-(6-Trifluoromethyl-pyridin-2-yl)-6-(2-trifluoromethyl-pyridin-4-ylamino)-[1,3,5]triazin-2-ylamino]-cyclopropanol], the IC50 was 100 to 1000 nM in test [1]; below 100 nM in test [2] (Homo sapiens, U-87 MG); 100 to 1000 nM in test [3].
Turning to `OC1CC1Nc1nc(Nc2ccnc(C(F)(F)F)c2)nc(-c2cccc(C(F)(F)F)n2)n1` (stereo not drawn) [Compound 569, 2-[4-(6-Trifluoromethyl-pyridin-2-yl)-6-(2-trifluoromethyl-pyridin-4-ylamino)-[1,3,5]triazin-2-ylamino]-cyclopropanol], the IC50 in test [1], in test [2] and in test [3] was 100 to 1000 nM each time.
For `CC(C)Nc1nc(Nc2cc(F)cc(S(C)(=O)=O)c2)nc(-c2cccc(C(F)(F)F)n2)n1` [Compound 570, N2-(3-fluoro-5-(methylsulfonyl)phenyl)-N4-isopropyl-6-(6-(trifluoromethyl)pyridin-2-yl)-1,3,5-triazine-2,4-diamine], the IC50 in test [1] is below 100 nM; in test [2] (Homo sapiens, U-87 MG), below 100 nM; in test [3] it was 100 to 1000 nM.
Turning to `CC(C)CNc1nc(Nc2cccc(S(C)(=O)=O)c2)nc(-c2cccc(C(F)(F)F)n2)n1` [Compound 571, N2-isobutyl-N4-(3-(methylsulfonyl)phenyl)-6-(6-(trifluoromethyl)pyridin-2-yl)-1,3,5-triazine-2,4-diamine], the IC50 in test [1] is 100 to 1000 nM; in test [2] (Homo sapiens, U-87 MG), below 100 nM; in test [3] it was 100 to 1000 nM.
Take `CC(C)Nc1nc(Nc2ccnc(Cl)c2)nc(-c2cccc(C(F)(F)F)n2)n1` [Compound 572, N2-(2-chloropyridin-4-yl)-N4-isopropyl-6-(6-(trifluoromethyl)pyridin-2-yl)-1,3,5-triazine-2,4-diamine]: the IC50 was 100 to 1000 nM in test [1]; below 100 nM in test [2] (Homo sapiens, U-87 MG); 100 to 1000 nM in test [3].
Regarding `CCC(=O)c1cc(Nc2nc(NC(C)C)nc(-c3cccc(C(F)(F)F)n3)n2)ccn1` [Compound 574, 1-{4-[4-Isopropylamino-6-(6-trifluoromethyl-pyridin-2-yl)-[1,3,5]triazin-2-ylamino]-pyridin-2-yl}-propan-1-one], the IC50 in test [1] is below 100 nM; in test [2] (Homo sapiens, U-87 MG), below 100 nM; in test [3], 100 to 1000 nM.
For the compound `CC(C)Nc1nc(Nc2ccnc(C(C)(F)F)c2)nc(-c2cccc(C(C)(F)F)n2)n1` [Compound 576, 6-[6-(1,1-Difluoro-ethyl)-pyridin-2-yl]-N-[2-(1,1-difluoro-ethyl)-pyridin-4-yl]-N′-isopropyl-[1,3,5]triazine-2,4-diamine], the IC50 in test [1] was 100 to 1000 nM; in test [2] (Homo sapiens, U-87 MG), below 100 nM; in test [3] it was 100 to 1000 nM.
Take `COC(=O)N1CCC(Nc2nc(Nc3ccnc(C(F)(F)F)c3)nc(-c3cccc(C(F)(F)F)n3)n2)CC1` [Compound 577, 4-[4-(6-Trifluoromethyl-pyridin-2-yl)-6-(2-trifluoromethyl-pyridin-4-ylamino)-[1,3,5]triazin-2-ylamino]-piperidine-1-carboxylic acid methyl ester]: the IC50 in test [1] is 100 to 1000 nM; in test [2] (Homo sapiens, U-87 MG), below 100 nM; in test [3], 1000 to 10000 nM.
The matching figures for `CC(C)Nc1nc(Nc2ccnc(C3(C)CC3)c2)nc(-c2cccc(C(F)(F)F)n2)n1` [Compound 581, N-Isopropyl-N′-[2-(1-methyl-cyclopropyl)-pyridin-4-yl]-6-(6-trifluoromethyl-pyridin-2-yl)-[1,3,5]triazine-2,4-diamine]: below 100 nM, below 100 nM and 100 to 1000 nM.
In the same order, the values of `CC(C)Nc1nc(Nc2ccnc(C(F)(F)F)c2)nc(-c2cccc(C(C)(F)F)n2)n1` [Compound 582, 6-[6-(1,1-Difluoro-ethyl)-pyridin-2-yl]-N-isopropyl-N′-(2-trifluoromethyl-pyridin-4-yl)-[1,3,5]triazine-2,4-diamine] are below 100 nM, below 100 nM and 100 to 1000 nM.
As to `CC(C)Nc1nc(Nc2cc(F)cc(F)c2)nc(-c2cccc(C(C)(F)F)n2)n1` [Compound 583, 6-(6-(1,1-difluoroethyl)pyridin-2-yl)-N2-(3,5-difluorophenyl)-N4-isopropyl-1,3,5-triazine-2,4-diamine], the IC50 was below 100 nM in test [1]; below 100 nM in test [2] (Homo sapiens, U-87 MG); 100 to 1000 nM in test [3].
For `CC(F)(F)c1cccc(-c2nc(NCC3CC3)nc(Nc3cc(F)cc(F)c3)n2)n1` [Compound 584, N2-(cyclopropylmethyl)-6-(6-(1,1-difluoroethyl)pyridin-2-yl)-N4-(3,5-difluorophenyl)-1,3,5-triazine-2,4-diamine], the IC50 is below 100 nM in test [1]; below 100 nM in test [2] (Homo sapiens, U-87 MG); 100 to 1000 nM in test [3].
